According to patent publication US7989464B2, “mGluR1 antagonists as therapeutic agents” (Schering Corporation, priority 2004, dated 2011):
Where two headings read alike, the source gives them in different places.

Target: T1, hmGluR1 receptor (Homo sapiens, UniProt Q13255)
T1 construct: expressed in transfected cells
Assay: IC50 determination: intracellular calcium mobilization (FLIPR) upon Quisqualate stimulation in CHO cells stably expressing hmGluR1
Type: cell-based
Conditions: against Quisqualate 1 μM (EC80)
Method in brief: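 CHO cells stably expressing hmGluR1 were kept overnight in DMEM high glucose with GPT and 1 mM pyruvate, then loaded 2 h with Calcium 3 dye.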

[1] = FLIPR calcium mobilization, read-out: IC50 Class
[2] = class symbols, read-out: mGIuR 1 IC50
[3] = FLIPR calcium mobilization, read-out: mGluR1 IC50

T1 sequence (Q13255 19-1194): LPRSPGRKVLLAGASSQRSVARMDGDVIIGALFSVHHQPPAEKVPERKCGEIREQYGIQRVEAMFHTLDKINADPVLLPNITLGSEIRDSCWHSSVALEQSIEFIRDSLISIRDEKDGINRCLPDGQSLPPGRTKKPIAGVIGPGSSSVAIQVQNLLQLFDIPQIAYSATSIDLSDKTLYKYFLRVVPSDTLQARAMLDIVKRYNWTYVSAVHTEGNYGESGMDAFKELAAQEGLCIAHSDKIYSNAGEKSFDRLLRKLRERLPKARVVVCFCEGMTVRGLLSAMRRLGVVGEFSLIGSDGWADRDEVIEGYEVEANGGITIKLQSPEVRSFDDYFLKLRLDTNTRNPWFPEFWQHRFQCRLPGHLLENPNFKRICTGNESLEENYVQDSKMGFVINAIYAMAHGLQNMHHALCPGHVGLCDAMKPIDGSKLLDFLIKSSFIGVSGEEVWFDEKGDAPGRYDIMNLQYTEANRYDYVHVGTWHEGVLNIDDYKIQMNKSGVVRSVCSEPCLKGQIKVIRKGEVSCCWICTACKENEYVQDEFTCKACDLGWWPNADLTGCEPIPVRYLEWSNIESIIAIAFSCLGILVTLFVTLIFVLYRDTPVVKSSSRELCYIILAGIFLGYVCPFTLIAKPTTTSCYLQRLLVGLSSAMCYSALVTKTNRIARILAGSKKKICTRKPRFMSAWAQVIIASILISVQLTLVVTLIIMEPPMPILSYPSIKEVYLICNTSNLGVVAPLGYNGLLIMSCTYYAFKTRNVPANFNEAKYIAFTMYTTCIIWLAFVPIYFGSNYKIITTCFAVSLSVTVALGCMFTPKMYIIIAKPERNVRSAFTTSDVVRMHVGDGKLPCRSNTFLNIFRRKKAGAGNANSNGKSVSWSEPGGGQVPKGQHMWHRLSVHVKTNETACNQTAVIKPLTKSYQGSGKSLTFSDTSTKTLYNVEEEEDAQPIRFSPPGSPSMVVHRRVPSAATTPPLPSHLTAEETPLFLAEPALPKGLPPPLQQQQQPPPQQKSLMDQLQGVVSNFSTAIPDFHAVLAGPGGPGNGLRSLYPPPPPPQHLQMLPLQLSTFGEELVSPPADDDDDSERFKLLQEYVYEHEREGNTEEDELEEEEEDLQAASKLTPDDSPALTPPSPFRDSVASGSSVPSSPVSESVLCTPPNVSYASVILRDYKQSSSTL

CN(CC(O)CO)c1ccnc2sc3c(=O)n(-c4ccc(Br)cc4)cnc3c12 (stereo not drawn) [28HU]
IC50 [1]: < 50 nM

O=c1c2sc3ncnc(Nc4ccccc4)c3c2ncn1-c1ccc2c(c1)OCO2 [95GG]
IC50 [1]: > 1000 nM

Cc1ccc(-n2cnc3c(sc4nccc(NCCO)c43)c2=O)cc1 [28AV]
IC50 [2]: < 50 nM

C=C(C)CNc1ncnc2sc3c(=O)n(-c4cccc(Cl)c4)cnc3c12 [95FK]
IC50 [1]: 50 to 150 nM

CN(C)c1ccnc2sc3c(=O)n(C4CCNCC4)cnc3c12 [15G]
IC50 [2]: > 1000 nM

COc1ccc(Nc2ccnc3sc4c(=O)n(-c5ccc(OC)cc5)cnc4c23)cc1 [28FP]
IC50 [1]: 150 to 1000 nM

CN(C)c1ccnc2sc3c(=O)n(-c4ccc5c(c4)OCO5)cnc3c12 [7A]
IC50 [2]: < 50 nM

COc1ccc(-n2cnc3c(sc4nccc(NC5CC5)c43)c2=O)c(F)c1 [131H]
IC50 [1]: 50 to 150 nM

O=c1c2sc3nccc(NC4Cc5ccccc5C4)c3c2ncn1C1CCCCC1 [72D]
IC50 [2]: > 1000 nM

CN(C)c1ccnc2sc3c(=O)n(N(c4ccccc4)c4ccccc4)cnc3c12 [60J]
IC50 [2]: > 1000 nM

Cc1nc2c(sc3nccc(N(C)C)c32)c(=O)n1-c1ccccc1 [113B]
IC50 [2]: < 50 nM

C=CCN(C)c1ccnc2sc3c(=O)n(-c4ccc(OC)cc4)cnc3c12 [28EA]
IC50 [1]: < 50 nM

Nc1ccnc2sc3c(=O)n(-c4ccc(Cl)cc4)cnc3c12 [28FK]
IC50 [1]: < 50 nM

C=CCNc1ncnc2sc3c(=O)n(-c4ccc(Cl)cc4)cnc3c12 [95BP]
IC50 [1]: < 50 nM | IC50 [3]: 1.31 nM

CN(C)c1cccc2sc3c(=O)n(-c4ccc(F)cc4)cnc3c12 [103N]
IC50 [1]: 150 to 1000 nM

Cc1ccc(-n2cnc3c(sc4ncc(C(N)=O)cc43)c2=O)cc1 [205C]
IC50 [1]: 150 to 1000 nM

CCNc1ccnc2sc3c(=O)n(-c4cccc(Cl)c4)cnc3c12 [28CD]
IC50 [1]: < 50 nM

CS(=O)(=O)N1CCN(c2ccnc3sc4c(=O)n(C5CCCCC5)cnc4c23)CC1 [compound 63]
IC50 [2]: 150 to 1000 nM

Cc1cc(N(C)C)c2c(n1)sc1c(=O)n(-c3cccnc3)cnc12 [7DD]
IC50 [2]: 150 to 1000 nM

COc1ccc(-n2cnc3c(sc4ncnc(Nc5cccc(C#N)c5)c43)c2=O)cc1 [190I]
IC50 [1]: 150 to 1000 nM

Cc1ccc(-n2cnc3c(sc4nc(N5CCNCC5)cc(N(C)C)c43)c2=O)cc1 [59B]
IC50 [2]: > 1000 nM

C#CCN(C)c1ccnc2sc3c(=O)n(-c4ccc(C)cc4)cnc3c12 [28AB]
IC50 [2]: < 50 nM

Cc1cc(-n2cnc3c(sc4nccc(N(C)C)c43)c2=O)ccc1I [7EA]
IC50 [2]: < 50 nM

NC(=O)CNc1ccnc2sc3c(=O)n(-c4ccc(F)cc4)cnc3c12 [28GG]
IC50 [1]: 150 to 1000 nM

COc1ccc(-c2c(C(C)=O)c(C)nc3sc4c(=O)n(-c5ccc(C)cc5)cnc4c23)cc1 [P-10]
IC50 [2]: 150 to 1000 nM

C=C(C)CNc1ncnc2sc3c(=O)n(-c4ccc(Br)cc4)cnc3c12 [95FA]
IC50 [1]: < 50 nM

COc1ccc(-n2cnc3c(sc4nccc(C(C)C)c43)c2=O)cc1 [29H]
IC50 [1]: < 50 nM

CCN(C)c1ccnc2sc3c(=O)n(-c4ccc(OC)cc4)cnc3c12 [7CE]
IC50 [2]: < 50 nM

CCCNc1ccnc2sc3c(=O)n(-c4ccc(C)cc4)cnc3c12 [28AS]
IC50 [2]: < 50 nM

CNc1ncnc2sc3c(=O)n(-c4ccc(OC)cc4C)cnc3c12 [95BH]
IC50 [1]: < 50 nM

Cc1ccc(-n2cnc3c(sc4ncnc(NCCCCO)c43)c2=O)cc1 [95DN]
IC50 [1]: < 50 nM

CN(C)c1ccnc2sc3c(=O)n(-c4ccc5[nH]ncc5c4)cnc3c12 [7AN]
IC50 [2]: 150 to 1000 nM

CN(C)c1c(C#N)ncc2sc3c(=O)n(-c4ccc(Cl)cc4)cnc3c12 [compound 55]
IC50 [2]: 50 to 150 nM

COc1cc(O)nc2sc3c(=O)n(C4CCCCC4)cnc3c12 [compound 80]
IC50 [2]: > 1000 nM

Cc1ccc(-n2cnc3c(sc4nc(NS(C)(=O)=O)cc(N(C)C)c43)c2=O)cc1 [28FL]
IC50 [1]: 150 to 1000 nM

O=c1c2sc3nccc(Cl)c3c2ncn1-c1ccccc1 [compound 13]
IC50 [2]: 150 to 1000 nM

CCNc1ccnc2sc3c(=O)n(-c4cccc(Br)c4)cnc3c12 [28CR]
IC50 [1]: 50 to 150 nM

C#CCNc1ncnc2sc3c(=O)n(-c4ccc(F)cc4)cnc3c12 [95ER]
IC50 [1]: < 50 nM

COc1ccc(-n2cnc3c(sc4nccc(Br)c43)c2=O)cc1 [compound 150]
IC50 [2]: 150 to 1000 nM

C#CCN(C)c1ccnc2sc3c(=O)n(-c4ccc(Br)cc4)cnc3c12 [28DV]
IC50 [1]: < 50 nM | IC50 [3]: 1.87 nM

CN(C)c1c(-c2cccc(C#N)c2)cnc2sc3c(=O)n(C4CCCCC4)cnc3c12 [47A]
IC50 [2]: 150 to 1000 nM

COc1ccnc2sc3c(=O)n(-c4ccc(Br)cc4)cnc3c12 [28FR]
IC50 [1]: < 50 nM

CN(C)c1ccnc2c1c1ncn(-c3ccc(OC(F)F)cc3)c(=O)c1n2C [134D]
IC50 [2]: > 1000 nM

CN(C)c1ccnc2sc3c(=O)n(C4CCOCC4)cnc3c12 [15E]
IC50 [2]: 50 to 150 nM

COc1ccc(Nc2ncnc3sc4c(=O)n(-c5ccc(OC)cc5)cnc4c23)cc1 [190B]
IC50 [1]: 50 to 150 nM

CN(C)c1cncc2sc3c(=O)n(N4CCCCC4)cnc3c12 [60L]
IC50 [2]: 150 to 1000 nM

COCCNc1ccnc2sc3c(=O)n(-c4ccc(Cl)cc4)cnc3c12 [28GK]
IC50 [1]: < 50 nM

O=c1c2sc3nccc(NC4CCCCC4)c3c2ncn1-c1ccc(OC(F)(F)F)cc1 [28F]
IC50 [2]: > 1000 nM

CN(C)c1ccnc2sc3c(=O)n(-c4nc5ccccc5s4)cnc3c12 [7BQ]
IC50 [2]: 150 to 1000 nM

CNc1ccnc2sc3c(=O)n(-c4ccc(C)cc4)c(C)nc3c12 [113G]
IC50 [2]: < 50 nM

CCN(C)c1ncnc2sc3c(=O)n(-c4ccc(SC)cc4)cnc3c12 [95L]
IC50 [2]: < 50 nM

O=c1c2sc3nccc(N4CC(O)C4)c3c2ncn1-c1ccc(Cl)cc1 [28DI]
IC50 [1]: 150 to 1000 nM

COC[C@H](C)Nc1ccnc2sc3c(=O)n(-c4ccc(Br)cc4)cnc3c12 [28GZ]
IC50 [1]: > 1000 nM

C=C(C)CNc1ncnc2sc3c(=O)n(-c4ccc(Cl)cc4)cnc3c12 [95EZ]
IC50 [1]: < 50 nM

Cc1ccc(F)c(-n2cnc3c(sc4nccc(N(C)C)c43)c2=O)c1 [7DZ]
IC50 [2]: < 50 nM

O=c1c2sc3ncnc(Nc4ccccc4)c3c2ncn1-c1ccc2ncsc2c1 [95GD]
IC50 [1]: > 1000 nM

COc1ccnc2sc3c(=O)n(-c4ccc(Cl)cc4Cl)cnc3c12 [28FV]
IC50 [1]: > 1000 nM

CC(=O)NN(C)c1ccnc2sc3c(=O)n(-c4ccc(Cl)cc4)cnc3c12 [73H]
IC50 [1]: 150 to 1000 nM

CN(C)c1cccc2sc3c(=O)n(-c4ccc(Cl)c(Cl)c4)cnc3c12 [103J]
IC50 [1]: > 1000 nM

Cc1ccc(-n2cnc3c(sc4ncnc(NCCCO)c43)c2=O)cc1 [95DL]
IC50 [1]: < 50 nM

Cc1ccc(-n2cnc3c(sc4nccc(N(C)NS(C)(=O)=O)c43)c2=O)cc1 [73J]
IC50 [1]: 150 to 1000 nM

COc1ccc(-n2cnc3c(sc4nccc(N(C)CCO)c43)c2=O)cc1 [28HJ]
IC50 [1]: < 50 nM

COc1ccc(-n2cnc3c(sc4ncnc(Nc5nccs5)c43)c2=O)cc1 [190D]
IC50 [1]: 150 to 1000 nM

Cc1ccc(-n2cnc3c(sc4nccc(N5CC(O)C5)c43)c2=O)cc1 [28DH]
IC50 [1]: 150 to 1000 nM

Cc1ccc(-n2cnc3c(sc4nccc(CN(C)C)c43)c2=O)cc1 [169A]
IC50 [1]: > 1000 nM

Cc1ccc(-n2cnc3c(sc4ncnc(N(C)C)c43)c2=O)cn1 [95O]
IC50 [2]: < 50 nM

CN(C)c1ccnc2sc3c(=O)n(-c4ccc(Cl)cc4)cnc3c12 [P-2]
IC50 [2]: < 50 nM

CCc1nc2c(sc3nccc(N(C)C)c32)c(=O)n1-c1ccc(OC)cc1 [116E]
IC50 [2]: 50 to 150 nM

O=c1c2sc3nccc(N4CCCCC4)c3c2ncn1-c1ccc(Cl)cc1 [28GH]
IC50 [1]: > 1000 nM

Cc1ccc(-n2cnc3c(sc4ncc(C(=O)N(C)C)cc43)c2=O)cc1 [205A]
IC50 [1]: > 1000 nM

CC(C)Nc1ccnc2sc3c(=O)n(-c4ccc(Br)cc4)cnc3c12 [28HD]
IC50 [1]: 150 to 1000 nM

CNc1c(Cl)cnc2sc3c(=O)n(-c4ccc(Cl)cc4)cnc3c12 [compound 200]
IC50 [1]: < 50 nM

COCCNc1ccnc2sc3c(=O)n(-c4ccc(C)cc4)cnc3c12 [28AZ]
IC50 [2]: < 50 nM

CNc1ccnc2sc3c(=O)n(-c4ccc5ncsc5c4)cnc3c12 [7BZ]
IC50 [2]: < 50 nM

CC(=O)N1CCN(c2ccnc3sc4c(=O)n(C5CCCCC5)cnc4c23)CC1 [compound 62]
IC50 [2]: > 1000 nM

Cc1ccc(-n2cnc3c(sc4nccc(NCC5CCCO5)c43)c2=O)cc1 (stereo not drawn) [28ET]
IC50 [1]: 50 to 150 nM

CNc1c(C#N)cnc2sc3c(=O)n(-c4ccc(Cl)cc4)cnc3c12 [compound 189]
IC50 [1]: 50 to 150 nM

CN(C)c1ccnc2sc3c(=O)n(-c4ccc5c(c4)OCCCO5)cnc3c12 [7CH]
IC50 [2]: 150 to 1000 nM

Nc1c([N+](=O)[O-])cnc2sc3c(=O)n(C4CCCCC4)cnc3c12 [compound 174]
IC50 [1]: 150 to 1000 nM

CN(C)c1ccnc2sc3c(=O)n(-c4ccc(OC(F)F)cc4)cnc3c12 [7Z]
IC50 [2]: < 50 nM

COc1cc(OC)cc(-n2cnc3c(sc4nccc(N(C)C)c43)c2=O)c1 [7AX]
IC50 [2]: < 50 nM

O=c1c2sc3nccc(NCCCO)c3c2ncn1-c1ccc(Br)cc1 [28GQ]
IC50 [1]: < 50 nM | IC50 [3]: 0.66 nM

CNc1ncnc2sc3c(=O)n(-c4ccc5scnc5c4)cnc3c12 [95BG]
IC50 [1]: < 50 nM

C#CCOc1ncnc2sc3c(=O)n(-c4ccc(C)cc4)cnc3c12 [66M]
IC50 [1]: 50 to 150 nM
